What was measured:
huEGFRt^+ T cells = assay: ADCC of huEGFRt^+ T cells, 4-hour chromium release assay; format: cell-based, human
Description: A valuable feature of a cell surface selection/tracking marker would be its capacity to serve as a target for in vivo cell ablation.
^51Cr-labeled huEGFRt^+ T cells as the target cells and human GM-CSF activated fresh PBMCs as effectors were co-cultured.

[1] = test system: transduced primary human T cells (CD62L^+CD45RO^+); assay: MTX selection of CD19CAR-huEGFRt-hDHFR^FS transduced primary human T cells; format: cell-based
Experimental: (§1) Applicants transduced primary human T cells with the same CD19CAR-huEGFRt-hDHFR^FS lentiviral vector. Purified CD62L^+CD45RO^+ T cells were used as a starting population based on their potential for persistence after adoptive transfer. Ten days after transduction, these T cells were cultured in varying concentrations of MTX and assessed for cell number and viability over time.

[2] = test system: non-transduced primary human T cells; assay: MTX effect on non-transduced primary human T cells; format: cell-based; details: starting at concentrations as low as 0.025 μM MTX
Experimental: as §1

transduced CTLL2 cells = assay: MTX resistance and selection of CD19CAR-huEGFRt-hDHFR^FS transduced CTLL2 cells; format: cell-based, murine; details: for huEGFRt^+ cells: 8 days
Experimental: CTLL2 T cells were first transduced with this CD19CAR-huEGFRt-hDHFR^FS lentiviral vector and evaluated for their resistance to MTX.
To further characterize the maximum dose of MTX that could be tolerated by selected CTLL2 cells, transduced CTLL2 cells that had been cultured in 0.1 μM MTX for 8 days were re-plated at a wider range of MTX concentrations (up to 0.75 μM).

[3] = test system: non-transduced CTLL2 cells; assay: MTX effect on non-transduced CTLL2 cells; format: cell-based, murine; details: ≥0.05 μM MTX
Description: In the absence of MTX, the non-transduced and transduced CTLL2 cells expanded at an equivalent rate (21- and 27-fold respectively).

## RITUXAN® (rituximab): CD20-specific mAb
huEGFRt^+ T cells
  triggering ADCC of huEGFRt^+ T cells: no effect

## CN(Cc1cnc2nc(N)nc(N)c2n1)c1ccc(C(=O)N[C@@H](CCC(=O)O)C(=O)O)cc1 [MTX, methotrexate]
[1]; 0.025 μM MTX, 10 days
  CD19CAR^+ cells: about 54%
  EGFRt^+ cells: ~79%
[1]; 0.05 μM MTX, 10 days
  CD19CAR^+ cells: about 76%
  EGFRt^+ cells: ~89%
[1]; 0.1 μM MTX
  viability of transduced T cells: 63%
[1]; Day 6 of culture (Day 0: 18%)
  CD19CAR^+ cells: 48%
[1]; Day 6 of culture (Day 0: 28%)
  EGFRt^+ cells: 71%
[1]; Day 10 of culture
  CD19CAR^+ cells: 70%
  EGFRt^+ cells: 88%
[2]
  viability and fold-expansion of non-transduced primary human T cells: strong inhibition
Transduced CTLL2 cells; 0.01 μM MTX
  huEGFRt^+ cells: 49%
Transduced CTLL2 cells; 0.025 μM MTX
  huEGFRt^+ cells: 93%
Transduced CTLL2 cells; 0.05 μM MTX
  huEGFRt^+ cells: 98.5%
Transduced CTLL2 cells; 0.1 μM MTX
  huEGFRt^+ cells: 99%
Transduced CTLL2 cells; MTX (0-0.1 μM) for 8 days
  expansion of transduced cells: 7 fold
  survival of transduced cells: 80%
Transduced CTLL2 cells; MTX concentrations up to 0.25 μM, pre-cultured in 0.1 μM MTX for 8 days
  expansion of transduced and pre-MTX selected cells: 90-100 fold
[3]
  non-transduced CTLL2 cell expansion and viability: strong inhibition
